How the values were obtained:
Format in all cases: functional
[1] = system: CAKI-1; test: Cytotoxicity against Homo sapiens (human) Caki1 cells after 48 hr by sulforhodamine B assay; details: CAKI-1, 48 h
[2] = system: EKVX; test: Cytotoxicity against Homo sapiens (human) EKVX cells after 48 hr by sulforhodamine B assay
[3] = system: DU-145; test: Cytotoxicity against Homo sapiens (human) DU145 cells after 48 hr by sulforhodamine B assay; details: DU-145, 48 h
[4] = system: SK-OV-3; test: Cytotoxicity against Homo sapiens (human) SKOV3 cells after 48 hr by sulforhodamine B assay; details: SK-OV-3, 48 h
[5] = system: RXF 393; test: Cytotoxicity against Homo sapiens (human) RXF393 cells after 48 hr by sulforhodamine B assay; details: RXF 393, 48 h
[6] = system: BT-549; test: Cytotoxicity against Homo sapiens (human) BT549 cells after 48 hr by sulforhodamine B assay; details: BT-549, 48 h
[7] = system: SK-MEL-5; test: Cytotoxicity against Homo sapiens (human) SK-MEL-5 cells after 48 hr by sulforhodamine B assay; details: SK-MEL-5, 48 h
[8] = system: SF-295; test: Cytotoxicity against Homo sapiens (human) SF295 cells after 48 hr by sulforhodamine B assay; details: SF-295, 48 h
[9] = system: NCI-H460; test: Cytotoxicity against Homo sapiens (human) NCI-H460 cells after 48 hr by sulforhodamine B assay; details: NCI-H460, 48 h
[10] = system: M14; test: Cytotoxicity against Homo sapiens (human) M14 cells after 48 hr by sulforhodamine B assay; details: M14, 48 h
[11] = system: HCC 2998; test: Cytotoxicity against Homo sapiens (human) HCC2998 cells after 48 hr by sulforhodamine B assay; details: HCC 2998, 48 h
[12] = system: SK-MEL-2; test: Cytotoxicity against Homo sapiens (human) SK-MEL-2 cells after 48 hr by sulforhodamine B assay; details: SK-MEL-2, 48 h
[13] = system: IGROV-1; test: Cytotoxicity against Homo sapiens (human) IGROV1 cells after 48 hr by sulforhodamine B assay; details: IGROV-1, 48 h
[14] = system: OVCAR-8; test: Cytotoxicity against Homo sapiens (human) OVCAR8 cells after 48 hr by sulforhodamine B assay; details: OVCAR-8, 48 h
[15] = system: UO-31; test: Cytotoxicity against Homo sapiens (human) UO31 cells after 48 hr by sulforhodamine B assay; details: UO-31, 48 h
[16] = Cytotoxicity against Homo sapiens (human) NCI-ADR-RES cells after 48 hr by sulforhodamine B assay
[17] = system: CCRF-CEM; test: Cytotoxicity against Homo sapiens (human) CCRF-CEM cells after 48 hr by sulforhodamine B assay
[18] = system: SK-MEL-28; test: Cytotoxicity against Homo sapiens (human) SK-MEL-28 cells after 48 hr by sulforhodamine B assay; details: SK-MEL-28, 48 h
[19] = system: MCF7; test: Cytotoxicity against Homo sapiens (human) MCF7 cells after 48 hr by sulforhodamine B assay; details: MCF7, 48 h
[20] = system: MOLT-4; test: Cytotoxicity against Homo sapiens (human) MOLT4 cells after 48 hr by sulforhodamine B assay; details: MOLT-4, 48 h
[21] = system: NCI-H23; test: Cytotoxicity against Homo sapiens (human) NCI-H23 cells after 48 hr by sulforhodamine B assay; details: NCI-H23, 48 h
[22] = system: LOX IMVI; test: Cytotoxicity against Homo sapiens (human) LOXIMVI cells after 48 hr by sulforhodamine B assay
[23] = system: OVCAR-3; test: Cytotoxicity against Homo sapiens (human) OVCAR3 cells after 48 hr by sulforhodamine B assay; details: OVCAR-3, 48 h
[24] = system: T47D; test: Cytotoxicity against Homo sapiens (human) T47D cells after 48 hr by sulforhodamine B assay
[25] = system: MCF7; test: Cytotoxicity against Homo sapiens (human) MCF7 cells assessed as cell growth at 10^-4 M after 48 hr by Alamar blue assay; details: MCF7, 48 h, read-out: Activity
[26] = system: HT-29; test: Cytotoxicity against Homo sapiens (human) HT-29 cells after 48 hr by sulforhodamine B assay; details: HT-29, 48 h
[27] = system: PC-3; test: Cytotoxicity against Homo sapiens (human) PC3 cells after 48 hr by sulforhodamine B assay; details: PC-3, 48 h
[28] = system: OVCAR-5; test: Cytotoxicity against Homo sapiens (human) OVCAR5 cells after 48 hr by sulforhodamine B assay; details: OVCAR-5, 48 h
[29] = system: U-251; test: Cytotoxicity against Homo sapiens (human) U251 cells after 48 hr by sulforhodamine B assay; details: U-251, 48 h
[30] = system: HOP-62; test: Cytotoxicity against Homo sapiens (human) HOP62 cells after 48 hr by sulforhodamine B assay; details: HOP-62, 48 h
[31] = system: NCI-H322M; test: Cytotoxicity against Homo sapiens (human) NCI-H322M cells after 48 hr by sulforhodamine B assay
[32] = system: SF-268; test: Cytotoxicity against Homo sapiens (human) SF268 cells after 48 hr by sulforhodamine B assay; details: SF-268, 48 h
[33] = read-out: LC50 (the source's name)

ClCc1ccccc1Cn1cnc2c(Cl)nc(Cl)nc21
GI50 [1]: 360 nM
TGI [1]: 890 nM
CC50 [1, 33]: 3.09 µM
GI50 [2]: 1770 nM
TGI [2]: 3.23 µM
CC50 [2, 33]: 5.88 µM
GI50 [3]: 130 nM
LC50 [3]: 6.31 µM
TGI [3]: 2950 nM
GI50 [4]: 1820 nM
LC50 [4]: 6.91 µM
TGI [4]: 3.54 µM
GI50 [5]: 100 nM
TGI [5]: 490 nM
GI50 [6]: 450 nM
LC50 (50% lethal concentration) [6]: 4.16 µM
TGI [6]: 1470 nM
GI50 [7]: 420 nM
LC50 [7]: 4.26 µM
TGI [7]: 1540 nM
GI50 [8]: 1900 nM
TGI [8]: 3.38 µM
CC50 [8, 33]: 6.02 µM
GI50 [9]: 3.31 µM
TGI [9]: 8.71 µM
CC50 [9, 33]: > 100 µM
GI50 [10]: 1380 nM
LC50 [10]: 5.75 µM
TGI [10]: 2810 nM
TGI [11]: 3.38 µM
CC50 [11, 33]: 6.16 µM
GI50 [12]: 2180 nM
LC50 (concentration killing 50% of cells) [12]: 8.51 µM
TGI [12]: 4.36 µM
GI50 [13]: 1540 nM
LC50 [13]: 7.07 µM
TGI [13]: 3.31 µM
GI50 [14]: 1230 nM
LC50 (concentration killing 50% of cells) [14]: 6.45 µM
TGI [14]: 2810 nM
GI50 [15]: 420 nM
LC50 (concentration causing 50% net cell kill) [15]: 5.92 µM
TGI [15]: 1510 nM
GI50 [16]: 1510 nM
LC50 (concentration killing 50% of cells) [16]: 6.16 µM
TGI [16]: 3.02 µM
GI50 [17]: 30 nM
TGI [17]: 90 nM
CC50 [17, 33]: 470 nM
GI50 [18]: 1230 nM
TGI [18]: 3.31 µM
GI50 [19]: 810 nM
LC50 (concentration killing 50% of cells) [19]: > 100 µM
TGI [19]: 1820 nM
GI50 [20]: 200 nM
TGI [20]: 630 nM
CC50 [20, 33]: 3.54 µM
GI50 [21]: 1510 nM
TGI [21]: 3.09 µM
CC50 [21, 33]: 6.31 µM
GI50 [22]: 150 nM
LC50 [22]: 850 nM
TGI [22]: 360 nM
GI50 [23]: 210 nM
LC50 [23]: 1540 nM
TGI [23]: 510 nM
GI50 [24]: 1990 nM
LC50 [24]: > 100 µM
TGI [24]: 5.49 µM
growth at 100 µM [25]: 0%
GI50 [26]: 420 nM
TGI [26]: > 100 µM
CC50 [26, 33]: > 100 µM
GI50 [27]: 440 nM
LC50 (concentration causing 50% cell kill) [27]: 5.12 µM
TGI [27]: 1620 nM
GI50 [28]: 1580 nM
TGI [28]: 2950 nM
CC50 [28, 33]: 5.62 µM
GI50 [29]: 310 nM
LC50 (concentration killing 50% of cells) [29]: 4.57 µM
TGI [29]: 1020 nM
GI50 [30]: 2040 nM
TGI [30]: 3.63 µM
CC50 [30, 33]: 6.45 µM
GI50 [31]: 1730 nM
TGI [31]: 3.27 µM
CC50 [31, 33]: 5.88 µM
GI50 [32]: 1770 nM
TGI [32]: 4.16 µM
